This note sets out measurements from patent US9382226B2, “Aldosterone synthase inhibitors” (Merck Sharp & Dohme Corp., priority 2010, dated 2016).

The target of one assay is T1, human CYP11B2 (Homo sapiens, UniProt P19099).
T1 construct: expressed in transfected cells; host or cells: V79 cells (clone V79-hCYP11B2-CLE9)
T1 sequence (P19099 25-503): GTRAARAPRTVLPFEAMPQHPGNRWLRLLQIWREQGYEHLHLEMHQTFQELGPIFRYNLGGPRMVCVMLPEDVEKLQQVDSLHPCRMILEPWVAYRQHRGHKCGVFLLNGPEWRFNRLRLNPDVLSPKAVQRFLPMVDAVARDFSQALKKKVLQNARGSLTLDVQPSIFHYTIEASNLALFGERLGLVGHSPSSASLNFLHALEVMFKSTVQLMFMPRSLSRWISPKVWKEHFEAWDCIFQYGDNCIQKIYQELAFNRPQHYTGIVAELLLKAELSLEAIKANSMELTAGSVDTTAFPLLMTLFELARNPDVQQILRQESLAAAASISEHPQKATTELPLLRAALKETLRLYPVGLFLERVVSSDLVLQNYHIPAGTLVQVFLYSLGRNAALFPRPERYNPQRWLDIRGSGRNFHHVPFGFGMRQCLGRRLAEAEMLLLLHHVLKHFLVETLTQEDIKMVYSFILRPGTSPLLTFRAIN
Briefly: V79-Human-CYP11B2 cell assay (aldosterone formation, HTRF). The class given is cell-based. Conditions: V79 cells stably expressing human CYP11B2; substrate 125 nM 11-deoxycorticosterone; 3 hours. The protocol: (§1) Methods for V79-Human-CYP11B2 and V79-Human-CYP11B1 Assays: V79 cell lines stably expressing the either the human CYP11B2 or the human CYP11B1 enzyme were generated using a standard transfection protocol. V79 cells were transfected with plasmids pTriEx3-Hygro-hCyp11B2 or pTriEx3-Hygro-hCyp11B1 using Lipofectamine2000 reagent. V79 cells that stably express the human CYP11B2 or human CYP11B1 enzyme were selected for and maintained in DMEM supplemented with 10% FBS and 400 μg/mL hygromycin for ˜2 weeks. Single cell clones were generated by […] in DMEM supplemented with 10% FBS and 400 μg/mL hygromycin until single colonies were obtained. Clones V79-hCYP11B2-CLE9 and V79-hCYP11B1-8C7, were determined to produce the most aldosterone and cortisol, respectively, and were selected for inhibitor screening. For testing of inhibitors, cells were harvested at 80% confluency with 0.5% Trypsan-EDTA, washed once in PBS, and reconstituted in DMEM 0.1% BSA media at a cell concentration of 400,000 cells/mL. 25 μl of cells were added to a 384 well tissue culture treated plate and mixed with 0.25 μl of inhibitor or DMSO (1% final DMSO concentration) for 1 hour at 37° C., 5% CO2. After pre-incubation with inhibitor, the reaction was initiated by adding 5 μl of substrate (final concentration of 125 nM 11-deoxycorticosterone for the CYP11B2 assay or 250 nM 11-deoxycortisol for the CYP11B1 assay). The reaction was carried out for 3 hours at 37° C., 5% CO2 and was stopped by harvesting the supernatants. The amount of product in the supernatant (aldosterone for CYP11B2 assay and cortisol for the CYP11B1 assay) was measured using HTRF-based assay kit (Aldosterone HTRF-CisBio#64ALDPEB, Cortisol HTRF-CisBio #63IDC002-CORT). IC50's for the inhibitor were determined by plotting the amount of product formed against the concentration of inhibitor using sigmoidal dose-response curve (variable slope) fit in GraphPad.

Another assay has as its target T2, human CYP11B1 (Homo sapiens, UniProt P15538).
T2 construct: expressed in transfected cells; host or cells: V79 cells (clone V79-hCYP11B1-8C7)
T2 sequence (P15538 25-503): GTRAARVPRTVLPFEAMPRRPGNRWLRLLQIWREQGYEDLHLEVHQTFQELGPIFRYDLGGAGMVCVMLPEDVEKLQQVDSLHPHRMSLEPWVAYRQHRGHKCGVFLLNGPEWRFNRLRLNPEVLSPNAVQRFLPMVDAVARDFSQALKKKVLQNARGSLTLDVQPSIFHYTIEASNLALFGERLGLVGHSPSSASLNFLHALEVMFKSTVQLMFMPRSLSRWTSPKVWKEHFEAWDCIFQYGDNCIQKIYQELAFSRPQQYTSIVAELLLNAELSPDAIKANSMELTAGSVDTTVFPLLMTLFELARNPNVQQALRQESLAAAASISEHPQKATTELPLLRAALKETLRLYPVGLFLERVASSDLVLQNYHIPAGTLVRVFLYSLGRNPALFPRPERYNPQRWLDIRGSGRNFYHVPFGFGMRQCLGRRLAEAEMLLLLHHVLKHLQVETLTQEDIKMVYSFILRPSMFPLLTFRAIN
Nature of the assay: V79-Human-CYP11B1 cell assay (cortisol formation, HTRF). It counts as cell-based. Conditions: V79 cells stably expressing human CYP11B1; substrate 250 nM 11-deoxycortisol; 3 hours. On the procedure: as §1, with “Clones V79-hCYP11B2-CLE9 and V79-hCYP11B1-8C7, were determined to produce the most aldosterone and cortisol, respectively, and were selected for inhibitor screening.” left out, “After pre-incubation with inhibitor, the reaction was initiated by adding 5 μl of substrate (final concentration of 125 nM 11-deoxycorticosterone for the CYP11B2 assay or 250 nM 11-deoxycortisol for the CYP11B1 assay).” left out

As to `Cn1c(-c2cccnc2)nc2cc(F)ccc21` [Example 4, 5-fluoro-1-methyl-2-(pyridin-3-yl)-1H-benzimidazole], the IC50 against human CYP11B2 came to 26 nM; on human CYP11B1, 4080 nM.

Regarding `Fc1ccc2nc(-c3cncc4ccccc34)n(C3CC3)c2c1` [Example 16, 4-(1-cyclopropyl-6-fluoro-1H-benzimidazol-2-yl)isoquinoline], the IC50 against human CYP11B2 stood at 0.1 nM; at human CYP11B1, 59.2 nM.

As to `Fc1ccc2c(c1)nc(-c1cccnc1)n2C1CC1` [Example 17, 1-cyclopropyl-5-fluoro-2-(pyridin-3-yl)-1H-benzimidazole], the values for the IC50 against human CYP11B2 and against human CYP11B1 were 28 nM and 3980 nM, respectively.

Regarding `CCn1c(-c2cncc3ccccc23)nc2cc(F)ccc21` [Example 26, 4-(1-ethyl-5-fluoro-1H-benzimidazol-2-yl)isoquinoline], the figures for the IC50 on human CYP11B2 and against human CYP11B1 were 3.8 nM and 304 nM, respectively.

`Fc1cc2nc(-c3cncc4ccccc34)n(C3CC3)c2cc1F` [Example 32, 4-(1-cyclopropyl-5,6-difluoro-1H-benzimidazol-2-yl)isoquinoline]: the IC50 on human CYP11B2 was found to be 0.1 nM; against human CYP11B1, 9.6 nM.

As to `CC(C)(O)c1cncc(-c2nc3cc(F)c(F)cc3n2C2CC2)c1` [Example 38, 2-[5-(1-Cyclopropyl-5,6-difluoro-1H-benzimidazol-2-yl)pyridin-3-yl]propan-2-ol], the values for the IC50 against human CYP11B2 and on human CYP11B1 were 0.3 nM and 42 nM, respectively.

Consider `COC(C)(C)c1cncc(-c2nc3cc(F)c(F)cc3n2C2CC2)c1` [Example 39, 1-cyclopropyl-5,6-difluoro-2-[5-(2-methoxypropan-2-yl)pyridin-3-yl]-1H-benzimidazole], for which the IC50 at human CYP11B2 is 0.3 nM; on human CYP11B1, 3.4 nM.

Regarding `COC(C)(C)c1cncc(-c2nc3ccc(F)cc3n2C2CC2)c1` [Example 51, 1-cyclopropyl-6-fluoro-2-[5-(2-methoxypropan-2-yl)pyridin-3-yl]-1H-benzimidazole], the IC50 against human CYP11B2 was 0.2 nM; against human CYP11B1, 4.7 nM.

For the molecule `N#Cc1ccc2nc(-c3cccnc3)n(C3CC3)c2c1` [Example 75, 1-cyclopropyl-2-(pyridin-3-yl)-1H-benzo[d]imidazole-6-carbonitrile], the figures for the 50% inhibitory concentration (IC50) on human CYP11B2 and on human CYP11B1 were 1.23 nM and 374 nM, respectively.

Consider `COc1cncc(-c2nc3ccc(C#N)cc3n2C2CC2)c1` [Example 76, 1-cyclopropyl-2-(5-methoxypyridin-3-yl)-1H-benzimidazole-6-carbonitrile], for which the figures for the IC50 against human CYP11B2 and at human CYP11B1 were 0.422 nM and 1750 nM, respectively.

As for `Cn1c(-c2cccnc2)nc2ccc(C#N)cc21` [Example 99, 1-methyl-2-(pyridin-3-yl)-1H-benzimidazole-6-carbonitrile], the IC50 against human CYP11B2 is 0.316 nM; against human CYP11B1, 98 nM.

For the molecule `Fc1cncc(-c2nc3cc(F)c(Cl)cc3n2C2CC2)c1` [Example 129, 6-chloro-1-cyclopropyl-5-fluoro-2-(5-fluoropyridin-3-yl)-1H-benzimidazole], the IC50 against human CYP11B2 came to 0.81 nM; on human CYP11B1, 161 nM.

Take `Fc1cc2nc(-c3cncc4ccccc34)n(C3CC3)c2cc1Cl` [Example 131, 4-(6-chloro-1-cyclopropyl-5-fluoro-1H-benzimidazol-2-yl)isoquinoline]: the IC50 against human CYP11B2 was 0.126 nM; on human CYP11B1, 122 nM.

For the molecule `Fc1cc2nc(-c3cccnc3)n(C3CC3)c2cc1Cl` [Example 132, 6-chloro-1-cyclopropyl-5-fluoro-2-(pyridin-3-yl)-1H-benzimidazole], the results for the IC50 at human CYP11B2 and at human CYP11B1 were 0.597 nM and 10000 nM, respectively.

Take `Cc1cncc(-c2nc3cc(F)c(Cl)cc3n2C2CC2)c1` [Example 135, 6-chloro-1-cyclopropyl-5-fluoro-2-(5-methylpyridin-3-yl)-1H-benzimidazole]: the IC50 against human CYP11B2 is 0.226 nM; against human CYP11B1, 602 nM.

For `Fc1cncc(-c2nc3ccc(Br)cc3n2C2CC2)c1` [Example 172, 6-bromo-1-cyclopropyl-2-(5-fluoropyridin-3-yl)-1H-benzimidazole], the IC50 against human CYP11B2 turned out to be 3.55 nM; on human CYP11B1 it was 946 nM.

On to `Cc1cncc(-c2nc3cc(F)c(F)cc3n2C)c1` [Example 212, 5,6-difluoro-1-methyl-2-(5-methylpyridin-3-yl)-1H-benzimidazole], for which the IC50 came to 0.585 nM on human CYP11B2 and 149 nM on human CYP11B1.

Regarding `COc1c(C)cncc1-c1nc2cc(F)c(F)cc2n1C1CC1` [Example 226, 1-cyclopropyl-5,6-difluoro-2-(4-methoxy-5-methylpyridin-3-yl)-1H-benzimidazole], the IC50 was 1.12 nM on human CYP11B2 and 790 nM at human CYP11B1.

Turning to `COc1cncc(-c2nc3ccc(Cl)cc3n2C)c1` [Example 232, 6-chloro-2-(5-methoxypyridin-3-yl)-1-methyl-1H-benzimidazole], the IC50 against human CYP11B2 is 0.2 nM; at human CYP11B1 it was 162 nM.

Take `Cn1c(-c2cccnc2)nc2ccc(Cl)cc21` [Example 233, 6-chloro-1-methyl-2-(pyridin-3-yl)-1H-benzimidazole]: the values for the IC50 against human CYP11B2 and on human CYP11B1 were 1.15 nM and 270 nM, respectively.

On to `Clc1ccc2nc(-c3cccnc3)n(C3CC3)c2c1` [Example 250, 6-chloro-1-cyclopropyl-2-(pyridin-3-yl)-1H-benzimidazole], for which the values for the IC50 against human CYP11B2 and against human CYP11B1 were 1.59 nM and 425 nM, respectively.

Take `Cn1c(-c2cncc3ccccc23)nc2cc(F)cc(F)c21` [Example 256, 4-(5,7-difluoro-1-methyl-1H-benzimidazol-2-yl)isoquinoline]: the IC50 worked out at 0.346 nM against human CYP11B2 and 490 nM against human CYP11B1.

In the case of `Cn1c(-c2cncc3ccccc23)nc2ccc(F)c(F)c21` [Example 267], the 50% inhibitory concentration (IC50) is 0.151 nM on human CYP11B2 and 206 nM on human CYP11B1.

Regarding `Cc1cncc(-c2nc3ccc(F)c(F)c3n2C)c1C` [Example 268, 2-(4,5-dimethylpyridin-3-yl)-6,7-difluoro-1-methyl-1H-benzimidazole], the values for the 50% inhibitory concentration (IC50) at human CYP11B2 and at human CYP11B1 were 0.234 nM and 117 nM, respectively.
